According to patent US7196114B2, “Substituted 3-(benzoylureido) thiophene derivatives, processes for preparing them and their use” (Sanofi-Aventis Deutschland GmbH, priority 2003, dated 2007):

What was measured:
[1] = target: T1, human glycogen phosphorylase a (Homo sapiens, UniProt P06737); assay: Glycogen phosphorylase a activity test; type: biochemical; details: inhibition of GPa in vitro, reverse direction (glycogen synthesis from glucose 1-phosphate, released inorganic phosphate, absorption at 820 nm)
T1 sequence (P06737 1-847): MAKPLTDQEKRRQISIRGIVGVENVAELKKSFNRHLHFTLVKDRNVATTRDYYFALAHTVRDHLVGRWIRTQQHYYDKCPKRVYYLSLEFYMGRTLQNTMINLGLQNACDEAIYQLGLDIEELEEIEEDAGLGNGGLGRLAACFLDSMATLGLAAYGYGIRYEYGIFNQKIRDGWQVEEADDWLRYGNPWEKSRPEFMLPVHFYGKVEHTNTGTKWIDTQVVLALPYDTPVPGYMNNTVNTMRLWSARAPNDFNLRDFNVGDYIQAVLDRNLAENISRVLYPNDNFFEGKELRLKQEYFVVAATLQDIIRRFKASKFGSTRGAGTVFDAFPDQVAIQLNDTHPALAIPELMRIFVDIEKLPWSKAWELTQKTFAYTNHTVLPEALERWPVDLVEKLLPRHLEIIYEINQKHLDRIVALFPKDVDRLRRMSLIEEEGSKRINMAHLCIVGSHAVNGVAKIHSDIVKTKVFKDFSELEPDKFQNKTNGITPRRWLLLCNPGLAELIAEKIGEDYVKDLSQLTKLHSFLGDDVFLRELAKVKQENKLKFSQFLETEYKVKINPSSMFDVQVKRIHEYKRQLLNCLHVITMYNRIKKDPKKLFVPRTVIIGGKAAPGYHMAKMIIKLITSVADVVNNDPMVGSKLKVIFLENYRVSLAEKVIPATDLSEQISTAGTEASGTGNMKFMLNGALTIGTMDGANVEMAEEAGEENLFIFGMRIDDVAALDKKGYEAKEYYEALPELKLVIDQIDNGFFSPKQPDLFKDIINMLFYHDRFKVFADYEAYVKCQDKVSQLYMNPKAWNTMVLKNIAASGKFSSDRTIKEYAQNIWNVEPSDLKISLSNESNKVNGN

Row | IC50 [1] [nM] | melting point | Compound
1 | 30 | > 300 °C | NC(=O)c1sc(-c2ccccc2)cc1NC(=O)NC(=O)c1cc(F)c(F)cc1Cl [Example 17]
2 | 10 | 226.5 °C | O=C(NC(=O)c1cc(F)c(F)cc1Cl)Nc1cc(-c2ccccc2)sc1C(=O)O [Example 21]
3 | 50 | > 250 °C (dec.) | NC(=O)c1sc(-c2cccs2)cc1NC(=O)NC(=O)c1cc(F)c(F)cc1Cl [Example 23]
4 | 40 | > 300 °C | COc1ccc(-c2cc(NC(=O)NC(=O)c3cc(F)c(F)cc3Cl)c(C(N)=O)s2)cc1 [Example 24]
5 | 1400 | – | O=C(NC(=O)c1cc(F)c(F)cc1Cl)Nc1cscc1-c1ccccc1 [Example 30]
6 | 80 | 219.8 °C | O=C(NC(=O)c1ccc(F)cc1Cl)Nc1ccsc1-c1nnn[nH]1 [Example 33]

Second part, the compound before the results:

Row | Compound | IC50 [1] [nM] | melting point
7 | O=C(NC(=O)c1cc(F)c(F)cc1Cl)Nc1ccsc1-c1n[nH]c(=O)o1 [Example 1d, 1-(2-Chloro-4,5-difluorobenzoyl)-3-[2-(5-oxo-4,5-dihydro[1,3,4]oxadiazol-2-yl)thiophen-3-yl]urea] | 30 | 236.1 °C
8 | Nc1nnc(-c2sccc2NC(=O)NC(=O)c2cc(F)c(F)cc2Cl)o1 [Example 2c, 1-[2-(5-Amino[1,3,4]oxadiazol-2-yl)thiophen-3-yl]-3-(2-chloro-4,5-difluorobenzoyl)urea] | 450 | –
9 | O=C(NC(=O)c1cc(F)c(F)cc1Cl)Nc1cc(-c2ccc(F)cc2)sc1C(=O)O [Example 3b, 3-[3-(2-Chloro-4,5-difluorobenzoyl)ureido]-5-(4-fluorophenyl)thiophene-2-carboxylic acid] | 10 | 227.7 °C
10 | O=C(NC(=O)c1cc(F)c(F)cc1Cl)Nc1cc(S(=O)(=O)N2CCCCC2)sc1N1CCC(C(=O)O)CC1 [Example 4d, 1-[3-[3-(2-Chloro-4,5-difluorobenzoyl)ureido]-5-(piperidine-1-sulfonyl)-thiophen-2-yl]piperidine-4-carboxylic acid] | 110 | 219.9 °C
11 | NC(=O)c1sccc1NC(=O)NC(=O)c1cc(F)c(F)cc1Cl [Example 6] | 700 | –
12 | CC(=O)c1sc(-c2ccccc2)cc1NC(=O)NC(=O)c1cc(F)c(F)cc1Cl [Example 15] | 170 | 204.8 °C
